# Experimental data as given in patent publication US10239889B1, “Pentacyclic compound” (Eisai R&D Management Co., Ltd., priority 2017, dated 2019).
# How the values were obtained:
# [1] = tested on: rat primary septal neuron culture; assay: Measurement of acetylcholine (ACh) release in the rat primary septal neuron culture system in the presence of NGF; format: cell-based; settings: rat primary septal neurons, with NGF, one day after compound addition, ACh by HPLC
# Text: Measurement of acetylcholine (ACh) release in the rat primary septal neuron culture system in the presence of NGF
# (1) Rat Primary Septal Neuron Culture
# The septal area was isolated from Sprague-Dawley (SD) rats (Charles River Laboratories Japan, Inc.) at a fetal age of 18 days, and cultured.
# Specifically, fetuses were aseptically removed from pregnant rats under isoflurane anesthesia. The brain was extracted from each fetus, and immersed in ice-cooled L-15 medium (11415-064, Thermo Fisher Scientific). The septal area was dissected from the extracted brain under a stereoscopic microscope. The dissected septal area was subjected to enzyme treatment in an enzyme solution containing 0.25% trypsin (15050-065, Thermo Fisher Scientific) and 0.01% DNase (D5025-150KU, Sigma) at 37° C. for 30 minutes, thereby dispersing the cells. In this case, the enzyme reaction was terminated by adding inactivated horse serum (26050-088, Thermo Fisher Scientific). The enzyme-treated solution was centrifuged at 1000 rpm for 3 minutes, and the supernatant was removed. A medium in an amount of 10 mL was added to the obtained cell mass. The medium used was Dulbecco's Modified Eagle's Medium (044-29765, WAKO) supplemented with N2 supplement (17502-048, Thermo Fisher Scientific), 1 mM sodium pyruvate (11360-070, Thermo Fisher Scientific), and Penicillin-Streptomycin (15140-1221, Thermo Fisher Scientific). The cells of the cell mass to which the medium was added were redispersed by gentle pipetting, and then centrifuged again at 1000 rpm for 3 minutes, and the supernatant was removed. The medium in an amount of 10 mL was added to the obtained cell mass, and the cell dispersion was filtered through a 40-μm nylon mesh (Cell Strainer) to remove the cell mass, thereby obtaining a neuronal cell suspension. The neuronal cell suspension was diluted with the medium, and 10% inactivated bovine serum (26140-079, Thermo Fisher Scientific) and 10% inactivated horse serum were added. Thereafter, 100 μL/well of the suspension was seeded in a 96-well plate (354461, CORNING) pre-coated with poly-D-lysine so that the initial culture density was 1.4×10^5 cells/cm^2. After the seeded cells were cultured under 5% CO2-95% air in a 37° C. incubator for 2 days, the entire medium was replaced with 120 μL of fresh medium, and the cells were subsequently cultured for 5 days.
# On the 7th day of culture, compound was added in the following manner. A solution of the test compound in DMSO was diluted with the medium so that the concentration was 10 times higher than the final concentration. NGF (450-01, PEPRO TECH, INC.) was prepared at 0.3 ng/mL. These two solutions were added each in an amount of 15 μL/well, and the mixture was mixed well. The final DMSO concentration was 0.1% or less. Moreover, only DMSO and NGF were added to the control group.
# (3) ACh Release Measurement
# One day after compound addition, an amount of ACh release was measured by HPLC in the following manner. A warmed buffer was added at 100 μL/well to the well after the medium was eliminated, and the buffer was immediately removed. Thereafter, a buffer to which 10 μm choline, 10 μm physostigmine, and 6 mM KCl were added was added at 120 μL/well. The buffer was prepared by adding 125 mM NaCl, 25 mM 4-(2-hydroxyethyl)-1-piperazineethanesulfonic acid, 1.2 mM KH2PO4, 1.2 mM MgSO4, 2.2 mM CaCl2 (2H2O), and 10 mM glucose to sterilized water, and the final pH of the solution was set to 7.4. After the 96-well plate to which the buffer was added was incubated under 5% CO2-95% air in a 37° C. incubator for 40 minutes, 80 μL of buffer was collected. An internal standard solution IPHC (5×10^−7 M) was added in an amount of 6 μL to the collected buffer, and the buffer was transferred to a tube for HPLC measurement and subjected to HPLC measurement. […]
# [2] = tested on: Choline Acetyltransferase (ChAT) mRNA; assay: Measurement of choline acetyltransferase (ChAT) mRNA expression levels in the rat septal area; format: in vivo; settings: SD rat medial septum, 24 hours after administration, qPCR
# Protocol: Measurement of Choline Acetyltransferase (ChAT) mRNA Expression Levels in the Rat Septal Area
# (1) Compound Administration
# In this study, SD male rats (Charles River Laboratories Japan, Inc.) with a body weight of about 250 to 350 g were used. The compound was dissolved in 0.01 mol/L hydrochloric acid, and orally administered.
# At 24 hours after the administration of the compound, the whole brain tissue was collected under pentobarbital anesthesia. The medial septum was isolated from whole brain on ice and frozen with liquid nitrogen, and then stored at −80° C.
# (3) Measurement of ChAT mRNA Expression Levels
# For RNA purification, RNeasy Plus Mini Kit (#74136: QIAGEN) was used in this study. RNA purification was performed by the method described in the kit. After RNA purification, the total RNA concentration was measured by using QIAxpert Instrument (QIAGEN). cDNA was synthesized using SuperScript® VILO™ cDNA Synthesis Kit (#11754: Thermo Fisher Scientific). The synthesis of cDNA was performed by the method described in the kit. The synthesized cDNA was diluted 4 times with RNase free water, and the diluted cDNA solution was used as a sample. Taqman Universal PCR Master Mix (#4304437: Thermo Fisher Scientific), Taqman® Gene Expression Assays, INVENTORIED (#4331182: Thermo Fisher Scientific), RNase free water, and the cDNA solution were mixed in amounts of 10 μl, 1 μl, 4 μl, and 5 μl, respectively, and the resulting mixture was used as a measurement sample solution. Quantitative polymerase chain reaction (qPCR) was conducted using ABI PRISM® 7900HT (Thermo Fisher Scientific) by a fluorescence probe method. Analysis was performed by SDS 2.4 (Thermo Fisher Scientific). The results were calculated by the percentage of the amount of ChAT mRNA expression levels in the compound administration group increased from the amount of ChAT mRNA expression levels in the vehicle administration group.
Structure (SMILES),Concentration (μM) showing a 20% or more increase from the amount of ACh in the control group [1],Amount (%) increased from the amount of ChAT mRNA expression levels in the vehicle administration group ([2]; oral 3 mg/kg),Amount (%) increased from the amount of ChAT mRNA expression levels in the vehicle administration group ([2]; oral 10 mg/kg)
"CN1CCc2c(sc3nc4n(c(=O)c23)-c2ccsc2C(=O)N(C)C4)C1 [Example 2, 5,10-dimethyl-5,6,9,10,11,12-hexahydropyrido[4″,3″:4′,5′]thieno[2′,3′:4,5]pyrimido[1,2-a]thieno[2,3-f][1,4]diazepine-4,13-dione]",0.1 µM,38.0%,
"CN1CCc2c(sc3nc4n(c(=O)c23)[C@@H]2CCC[C@@H]2C(=O)N(C)C4)C1 [Example 4, (3aS,14aR)-5,10-dimethyl-3,3a,5,6,9,10,11,12-octahydro-1H-cyclopenta[f]pyrido[4″,3″:4′,5′]thieno[2′,3′:4,5]pyrimido[1,2-a][1,4]diazepine-4,13(2H,14aH)-dione]",0.1 µM,,42.4%
"CN1CCc2c(sc3nc4n(c(=O)c23)[C@@H]2CCC[C@H]2C(=O)N(C)C4)C1 [Example 5, (3aR,14aR)-5,10-dimethyl-3,3a,5,6,9,10,11,12-octahydro-1H-cyclopenta[f]pyrido[4″,3″:4′ 5′]thieno[2′,3′:4,5]pyrimido[1,2-a][1,4]diazepine-4,13(2H,14aH)-dione]",0.1 µM,33.6%,
"CN1CCc2c(sc3nc4n(c(=O)c23)[C@H]2CCC[C@@H]2C(=O)N(C)C4)C1 [Example 6, (3aS,14aS)-5,10-dimethyl-3,3a,5,6,9,10,11,12-octahydro-H-cyclopenta[f]pyrido[4″,3″:4′,5′]thieno[2′,3′:4,5]pyrimido[1,2-a][1,4]diazepine-4,13(2H,14aH)-dione]",0.03 µM,,32.0%
